Measurements as given in patent publication US5451569A, “Pulmonary drug delivery system” (Hong Kong University of Science and Technology R & D …, priority 1994, dated 1995).

Columns and labels:
[1] = tested on: rats; assay: Urine osmolarity and urine volume after tracheal instillation of AVP during 5% glucose infusion; type: in vivo, rat; settings: 0.6 units AVP by tracheal instillation after 30 minutes of 5% glucose infusion at 10 ml/hr
Method: The trachea was cannulated for drug delivery.
This example illustrates the effect of surfactant on pulmonary vasopressin (AVP) absorption. The experimental details were as follows. 5% glucose was infused at 10 ml/hr throughout the experiment. Urine osmolarity and urine volume resulting from glucose administration alone was contrasted with (1) a delivery of 0.6 units AVP, and (2) delivery of 0.6 units of AVP with 60 μl of surfactant (at a concentration of 40 mg/ml). In (1) and (2) the delivery of AVP and AVP with surfactant was by instillation through the trachea after 30 minutes of glucose infusion which infusion continued. FIGS. 3(a) and (b) show the results in term of urine osmolarity and volume respectively. Infusion of 5% glucose should have the effect of decreasing urine osmolarity and increasing urine volume.

[2] = tested on: rats; assay: Blood glucose after intravenous or tracheal delivery of insulin in cannulated rats
Method: A sufficient number of rats weighing between 350-400 g were selected. In each rat the carotid artery and jugular vein were cannulated for blood sampling and fluid infusion. The trachea was cannulated for drug delivery. Fluids given through the trachea were either in a volume of 100 μl or 200 μl given in two separate doses 30 minutes apart. 40 μl of insulin (at a concentration of 200 units/ml) was mixed with 60 μl of lung surfactant (at a concentration of 40 mg/ml) and was administered by the tracheal route. Insulin without surfactant was administered intravenously to a control sample.

| Molecule | effect on urine osmolarity ([1]; FIG. 3(a)) | effect on urine volume ([1]; FIG. 3(b)) | time after which glucose concentration begins to rise again ([2]; intravenous insulin, FIG. 1(a)) | intravenous insulin dose equivalent to tracheal delivery of 8 units of insulin ([2]; tracheal delivery of 8 units (40 μl of 200 units/ml), hypoglycemic effect, FIG. 1(b)) [units] | share of insulin that enters the bloodstream ([2]; tracheal delivery of 8 units, estimated from the equivalent intravenous dose) | duration of hypoglycemic effect ([2]; tracheal delivery, over a three hour period, FIG. 1(b)) |
| --- | --- | --- | --- | --- | --- | --- |
| NC(=O)CC[C@@H]1NC(=O)[C@H](Cc2ccccc2)NC(=O)[C@H](Cc2ccc(O)cc2)NC(=O)[C@@H](N)CSSC[C@@H](C(=O)N2CCC[C@H]2C(=O)N[C@@H](CCCN=C(N)N)C(=O)NCC(N)=O)NC(=O)[C@H](CC(N)=O)NC1=O [AVP, vasopressin] | increases urine osmolarity | reduces urine volume | – | – | – | – |
| insulin | – | – | approximately 60 mins | 0.5 | about 6.25% | no significant increase in glucose concentration |
